Broadly, the IC50 is the concentration at which inhibition is half-maximal.

Common to all, as to type: cell-based
Experiment [1] concerns the target T1, hNav1.1 (Homo sapiens, UniProt P35498, F1774A).
T1 construct: gene SCN1A; full-length alpha-subunit in HEK-293 cells with human beta1; with Sodium channel regulatory subunit beta-1
Kind of experiment: automated whole-cell voltage clamp.

Experiment [2] concerns the target T2, hNav1.1 (Homo sapiens, UniProt P35498).
T2 construct: gene SCN1A; full-length alpha-subunit in HEK-293 cells with human beta1; with Sodium channel regulatory subunit beta-1
Kind of experiment: automated whole-cell voltage clamp.

In another experiment the target is T3, hNav1.4 (Homo sapiens, UniProt P35499).
T3 construct: gene SCN4A; full-length alpha-subunit in HEK-293 cells with human beta1; with Sodium channel regulatory subunit beta-1
Kind of experiment: automated whole-cell voltage clamp (Qube-384).

The target of experiment [3] is T4, hNav1.6 (Homo sapiens, UniProt Q9UQD0, N1768D).
T4 construct: gene SCN8A; full-length alpha-subunit in HEK-293 cells with human beta1; with Sodium channel regulatory subunit beta-1
Briefly: automated whole-cell voltage clamp.

In another experiment the target is T5, hNav1.5 (Homo sapiens, UniProt Q14524).
T5 construct: gene SCN5A; full-length alpha-subunit in HEK-293 cells with human beta1; with Sodium channel regulatory subunit beta-1
Briefly: automated whole-cell voltage clamp (Qube-384).

Experiment [4] deals with T6, hNav1.6 (Homo sapiens, UniProt Q9UQD0).
T6 construct: gene SCN8A; full-length alpha-subunit in HEK-293 cells with human beta1; with Sodium channel regulatory subunit beta-1
Kind of experiment: automated whole-cell voltage clamp.

Another experiment deals with T7, NaChBac (Halalkalibacterium halodurans, UniProt Q9KCR8).
T7 construct: gene BH1501; homotetrameric bacterial channel expressed in HEK-293 cells (construct not described)
T7 sequence (Q9KCR8 1-274): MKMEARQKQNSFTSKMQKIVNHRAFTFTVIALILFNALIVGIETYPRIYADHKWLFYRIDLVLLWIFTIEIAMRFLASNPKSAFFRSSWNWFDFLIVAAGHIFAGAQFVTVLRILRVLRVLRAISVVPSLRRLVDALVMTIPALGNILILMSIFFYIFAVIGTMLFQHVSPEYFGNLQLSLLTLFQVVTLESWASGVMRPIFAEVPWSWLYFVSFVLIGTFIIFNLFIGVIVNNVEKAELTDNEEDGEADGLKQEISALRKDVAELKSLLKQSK
Kind of experiment: whole-cell voltage clamp.

The next experiment addresses T8, hNav1.3 (Homo sapiens, UniProt Q9NY46).
T8 construct: gene SCN3A; full-length alpha-subunit in HEK-293 cells with human beta1; with Sodium channel regulatory subunit beta-1
Kind of experiment: automated whole-cell voltage clamp (Qube-384).

A further experiment addresses T9, hNav1.2 (Homo sapiens, UniProt Q99250).
T9 construct: gene SCN2A; full-length alpha-subunit in HEK-293 cells with human beta1; with Sodium channel regulatory subunit beta-1
Kind of experiment: manual whole-cell patch clamp.

The next experiment deals with T10, mNav1.6 (Mus musculus, UniProt Q9WTU3).
T10 construct: gene Scn8a; full-length mouse alpha-subunit in HEK-293 cells with human beta1; with Sodium channel regulatory subunit beta-1 (human)
Briefly: automated whole-cell voltage clamp (Qube-384).

For the molecule `CCCCNc1ccc(C(=O)OCCN(C)C)cc1` [tetracaine], the values for the concentration for half-maximal inhibition (IC50) against hNav1.1 [1] and at hNav1.1 [2] were approximately 44.1 µM and 1.6 ± 0.1 µM, respectively.
Regarding `C=C(C)[C@@H]1CCC(C)=C[C@H]1c1c(O)cc(CCCCC)cc1O` [cannabidiol], the 50% inhibitory concentration (IC50) against hNav1.4 stood at 1.9 ± 0.1 µM; on hNav1.6 [3], 10 ± 0.7 µM; on hNav1.5, 3.8 ± 0.2 µM; against hNav1.1 [1], 4.8 ± 0.2 µM; against hNav1.6 [4], 3 ± 0.1 µM; at NaChBac, 1.5 ± 0.2 µM. Besides, the IC50 is 3.3 ± 0.1 µM against hNav1.3, 1.3 ± 0.1 µM on hNav1.2, 2.5 ± 0.2 µM against hNav1.1 [2] and 2.4 ± 0.1 µM against mNav1.6.

These data come from PMC6204917, “Inhibitory effects of cannabidiol on voltage-dependent sodium currents” (The Journal of Biological Chemistry, 2018).
